Source: patent US20220168427A1 (Ranok Therapeutics (Hangzhou) Co. Ltd., priority 2019, published 2022)
pIC50: −log10 of the molar value. Structures can show the parent of a compound that is named as a salt.

What was measured:
[1] = target: HSP90α (Homo sapiens, UniProt P07900); experiment: HSP90α Binding Fluorescent Polarization (FP) Assay; conditions: competition with FITC-geldanamycin; read-out: HSP90 Binding Potency
Protocol: HSP90α Binding Fluorescent Polarization (FP) Assay
A master mix was prepared with assay buffer, BSA and FITC-geldanamycin. In a 96-well plate, a serial 3-fold dilution of each compound was prepared ranging from 40 μM down until 2.0 nM. Also in a 96-well plate, recombinant HSP90α protein was diluted to 28 μg/ml. Then, in a 384-well plate, 10 μl of master mix and 5 μl of compound dilution were added per well to duplicate wells and mixed by brief shaking. Then 5 μl of diluted HSP90α protein was added per well, mixed by brief shaking, incubated at 25° C. for 30, 60 and 120 min and fluorescence was measured on an EnVision Plate Reader. Background-subtracted mP values were calculated from EnVision raw data and a four-parameter “log[inhibitor] vs. response” curve was fitted using GraphPad Prism 7.0.

[2] = target: T1, BRD4 (BD1+BD2) (Homo sapiens, UniProt O60885); conditions: read-out: BRD4 Binding Potency
T1 construct: 1.8 μg/ml recombinant BRD4 (BD1+BD2 domains) protein
Protocol: A master mix was prepared with assay buffer, 1.8 μg/ml recombinant BRD4 (BD1+BD2 domains) protein, and 200-fold dilutions of Tb-labeled donor and dye-labeled acceptor. 40-fold dilutions of acetylated and non-acetylated ligands were prepared in 1×BRD TR-FRET assay buffer. Also, a serial 3-fold dilution of each compound was prepared ranging from 40 μM down until 2.0 nM. In a 384-well plate, 5 μl diluted ligand and 5 μl of compound dilution were added per well to duplicate wells and mixed by brief shaking. Then 10 μl of master mix was added per well, mixed by brief shaking, incubated at 25° C. for 2 hr and fluorescence was measured on an EnVision Plate Reader. The 665 nm/615 nm ratio was calculated from EnVision raw data. Data were normalized using whole-plate averages of “positive” and “negative” readings. A four-parameter “log[inhibitor] vs. response” curve was fitted using GraphPad Prism 7.0.

[3] = tested on: MV4-11 cells; experiment: MV4-11 Cell Cytotoxicity Assay; type: cell-based, human; conditions: CCK-8; for IC50 at 72 h: human, MV4-11 cells
Excerpt: % Inhibition=100−(D−B)/(S−B)*100%.
S: The absorbance of the maximum (cells with DMSO)
B: The absorbance of the minimum (medium with DMSO)

SMILES	pIC50 [1]	pIC50 [2]	IC50 at 72 h [3]	pIC50 ([3]; 72 hr)
Cc1sc2c(c1C)C(c1ccc(Cl)cc1)=N[C@@H](CC(=O)N(C)[C@H](C)c1ccc(CN3CCC(Cc4ccc(-n5c(O)nnc5-c5cc(C(C)C)c(O)cc5O)cc4)CC3)cc1)c1nnc(C)n1-2 [Compound 93, 2-((S)-4-(4-chlorophenyl)-2,3,9-trimethyl-6H-thieno[3,2-f][1,2,4]triazolo[4,3-a][1,4]diazepin-6-yl)-N—((R)-1-(4-((4-(4-(3-(2,4-dihydroxy-5-isopropylphenyl)-5-hydroxy-4H-1,2,4-triazol-4-yl)benzyl)piperidin-1-yl)methyl)phenyl)ethyl)-N-methylacetamide, trifluoroacetic acid]	6.00 to 7.00	6.00 to 7.00	< 100 nM	–
CCc1cc(-c2nnc(O)n2-c2ccc(CN3CCC(C(=O)N4CCC(CNCC[C@@H]5N=C(c6ccc(Cl)cc6)c6c(sc(C)c6C)-n6c(C)nnc65)CC4)CC3)cc2)c(O)cc1O [Compound 68, (4-(((2-((6S)-4-(4-chlorophenyl)-2,3,9-trimethyl-6H-thieno[3,2-f][1,2,4]triazolo[4,3-a][1,4]diazepin-6-yl)ethyl)amino)methyl)piperidin-1-yl)(1-(4-(3-(5-ethyl-2,4-dihydroxyphenyl)-5-hydroxy-4H-1,2,4-triazol-4-yl)benzyl)piperidin-4-yl)methanone, trifluoroacetic acid]	6.00 to 7.00	6.00 to 7.00	100 to 1000 nM	–
COc1cccc(-c2cc(C(=O)Nc3ccc(-c4ccc(OC5CCN(CC[C@@H]6N=C(c7ccc(Cl)cc7)c7c(sc(C)c7C)-n7c(C)nnc76)CC5)cc4OCCN(C)C)cc3)ccc2OC)c1 [Compound 139, (S)—N-(4′-((1-(2-(4-(4-chlorophenyl)-2,3,9-trimethyl-6H-thieno[3,2-f][1,2,4]triazolo[4,3-a][1,4]diazepin-6-yl)ethyl)piperidin-4-yl)oxy)-2′-(2-(dimethylamino)ethoxy)-[1,1′-biphenyl]-4-yl)-3′,6-dimethoxy-[1,1′-biphenyl]-3-carboxamide]	< 6.00	6.00 to 7.00	–	6.00 to 7.00
CCN(CC)CCNC(=O)c1nnc(-c2ccc(O)cc2O)n1-c1ccc(CN2CCN(CC3CCN(C(=O)C[C@@H]4N=C(c5ccc(Cl)cc5)c5c(sc(C)c5C)-n5c(C)nnc54)CC3)CC2)cc1 [Compound 111, (S)-4-(4-((4-((1-(2-(4-(4-chlorophenyl)-2,3,9-trimethyl-6H-thieno[3,2-f][1,2,4]triazolo[4,3-a][1,4]diazepin-6-yl)acetyl)piperidin-4-yl)methyl)piperazin-1-yl)methyl)phenyl)-N-(2-(diethylamino)ethyl)-5-(2,4-dihydroxyphenyl)-4H-1,2,4-triazole-3-carboxamide, trifluoroacetic acid]	6.00 to 7.00	> 7.00	< 100 nM	–
Cc1sc2c(c1C)C(c1ccc(Cl)cc1)=N[C@@H](CC(=O)NCCc1ccc(-n3c(O)nnc3-c3cc(C(C)C)c(O)cc3O)cc1)c1nnc(C)n1-2 [Compound 39, 2-((6S)-4-(4-chlorophenyl)-2,3,9-trimethyl-6H-thieno[3,2-f][1,2,4]triazolo[4,3-a][1,4]diazepin-6-yl)-N-(4-(3-(2,4-dihydroxy-5-isopropylphenyl)-5-hydroxy-4H-1,2,4-triazol-4-yl)phenethyl)acetamide]	6.00 to 7.00	6.00 to 7.00	< 100 nM	–
CCc1cc(-c2nnc(O)n2-c2ccc(CN3CCN(CC4CCN(C(=O)C[C@@H]5N=C(c6ccc(Cl)cc6)c6c(sc(C)c6C)-n6c(C)nnc65)CC4)CC3)cc2)c(O)cc1O [Compound 1, 2-((6S)-4-(4-chlorophenyl)-2,3,9-trimethyl-6H-thieno[3,2-f][1,2,4]triazolo[4,3-a][1,4]diazepin-6-yl)-1-(4-((4-(4-(3-(5-ethyl-2,4-dihydroxyphenyl)-5-hydroxy-4H-1,2,4-triazol-4-yl)benzyl)piperazin-1-yl)methyl)piperidin-1-yl)ethanone]	6.00 to 7.00	6.00 to 7.00	–	–
CCNC(=O)c1noc(-c2cc(C(C)C)c(O)cc2O)c1-c1ccc(CN2CCN(CC3CCN(C(=O)C[C@@H]4N=C(c5ccc(Cl)cc5)c5c(sc(C)c5C)-n5c(C)nnc54)CC3)CC2)cc1 [Compound 16, 4-(4-((4-((1-(2-((6S)-4-(4-chlorophenyl)-2,3,9-trimethyl-6H-thieno[3,2-f][1,2,4]triazolo[4,3-a][1,4]diazepin-6-yl)acetyl)piperidin-4-yl)methyl)piperazin-1-yl)methyl)phenyl)-5-(2,4-dihydroxy-5-isopropylphenyl)-N-ethylisoxazole-3-carboxamide, trifluoroacetic acid]	6.00 to 7.00	6.00 to 7.00	–	–
CCc1cc(-c2nnc(C(N)=O)n2-c2ccc(CN3CCN(CC4CCN(C(=O)C[C@@H]5N=C(c6ccc(Cl)cc6)c6c(sc(C)c6C)-n6c(C)nnc65)CC4)CC3)cc2)c(O)cc1O [Compound 121, (S)-4-(4-((4-((1-(2-(4-(4-chlorophenyl)-2,3,9-trimethyl-6H-thieno[3,2-f][1,2,4]triazolo[4,3-a][1,4]diazepin-6-yl)acetyl)piperidin-4-yl)methyl)piperazin-1-yl)methyl)phenyl)-5-(5-ethyl-2,4-dihydroxyphenyl)-4H-1,2,4-triazole-3-carboxamide hydrochloride]	> 7.00	< 6.00	–	–
CCc1cc(-c2nnc(C(N)=O)n2-c2ccc(CN3CCN(CC4CCN(C(=O)C[C@@H]5N=C(c6ccc(Cl)cc6)c6c(sc(C)c6C)-n6c(C)nnc65)CC4)CC3)cc2)c(O)cc1O [Compound 120, (S)-4-(4-((4-((1-(2-(4-(4-chlorophenyl)-2,3,9-trimethyl-6H-thieno[3,2-f][1,2,4]triazolo[4,3-a][1,4]diazepin-6-yl)acetyl)piperidin-4-yl)methyl)piperazin-1-yl)methyl)phenyl)-5-(5-ethyl-2,4-dihydroxyphenyl)-4H-1,2,4-triazole-3-carboxamide hydrochloride]	6.00 to 7.00	> 7.00	–	–
Cc1sc2c(c1C)C(c1ccc(Cl)cc1)=N[C@@H](CC(=O)N1CCC(CN3CCN(Cc4ccc(-n5c(O)nnc5-c5cc(C(C)C)c(O)cc5O)cc4)CC3)CC1)c1nnc(C)n1-2 [Compound 40, 2-((6S)-4-(4-chlorophenyl)-2,3,9-trimethyl-6H-thieno[3,2-f][1,2,4]triazolo[4,3-a][1,4]diazepin-6-yl)-1-(4-((4-(4-(3-(2,4-dihydroxy-5-isopropylphenyl)-5-hydroxy-4H-1,2,4-triazol-4-yl)benzyl)piperazin-1-yl)methyl)piperidin-1-yl)ethanone, trifluoroacetic acid]	> 7.00	6.00 to 7.00	–	–
Cc1sc2c(c1C)C(c1ccc(Cl)cc1)=N[C@@H](CC(=O)NC(C)c1ccc(CN3CCC(Cc4ccc(-n5c(O)nnc5-c5cc(C(C)C)c(O)cc5O)cc4)CC3)cc1)c1nnc(C)n1-2 (stereo in doubt) [Compound 82, 2-((S)-4-(4-chlorophenyl)-2,3,9-trimethyl-6H-thieno[3,2-f][1,2,4]triazolo[4,3-a][1,4]diazepin-6-yl)-N—((R)-1-(4-((4-(4-(3-(2,4-dihydroxy-5-isopropylphenyl)-5-hydroxy-4H-1,2,4-triazol-4-yl)benzyl)piperidin-1-yl)methyl)phenyl)ethyl)acetamide hydrochloride]	–	> 7.00	< 100 nM	–
